This note sets out measurements from US20060035810A1, “Regulation of ins(3456)p4 signalling by a reversible kinase phosphatase and methods and compositions related thereto” (priority 2002, published 2006).

Format in all cases: cell-based, mouse
For test [1], the system named is insulin granules in pancreatic β-cells. The experiment in a line: Insulin granule acidification, LSG fluorescence with patch-clamp and confocal imaging. How it is done:
FIG. 6. Ins(3,4,5,6)P4 inhibits acidification of insulin granules in pancreatic β-cells. FIG. 6A, Representative time-courses for intragranular acidification, monitored by increased fluorescence of LSG before and after establishment of the standard whole-cell configuration (see arrow) and the effect of perfusion of intracellular medium (containing 0.4 μM [Ca^2+]free except where “no calcium” is indicated; see Methods) plus either 0 (“control”), 1 or 10 μM Ins(3,4,5,6)P4. FIG. 6B, Mean (±SE) fluorescence changes (n-5-11), during the 60 s that followed establishment of the standard whole-cell configuration, for cells perfused with inositol phosphates as indicated at the base of the bar graph. Where indicated, DIDS (100 μM) were added to the bath solution 30 min prior to patching the cells. Statistical significance was evaluated by Student's unpaired t-test (* P<0.01).
The inositol phosphates used in this study were all purchased from CellSignals Inc (Lexington, Ky.). Insulin granule pH were monitored by combining the patch-clamp technique with confocal imaging. Pancreatic β-cells, isolated and cultured on glass coverslips for 2-24 h, were voltage clamped at −70 mV, as previously described (B9). LysoSensor-Green™ DND-189 (1 μM; Molecular Probes, Leiden, The Netherlands) was added during the last 30 min of cell culture and was also included in the extracellular buffer (B9) that continuously perfused the experimental chamber. All LSG experiments were performed at 20° C. to prevent exocytosis that otherwise interfered with the optical measurements (15). LSG fluorescence was excited using the 488 nm-line of a Zeiss 510 confocal microscope. The emitted light was collected with a 63×/1.3 NA oil objective and a >505 nm filter. Laser scanning was performed with low pixel resolution (128×128) and with 6 s intervals to minimize photo-bleaching. After gigaseal formation, it was ascertained that LSG fluorescence was stable for at least 30 s before the experiment commenced. The intracellular electrode solution contained: 125 mM K-glutamate, 10 mM KCl, 1 0 mM NaCl, 1 mM MgCl2, 5 mM HEPES, 3 mM Mg-ATP, 0.1 mM cAMP, 10 mM EGTA and 7 mM CaCl2 (˜0.4 μM free [Ca^2+]I; pH 7.2 with KOH). In some experiments, marked “no calcium”, there was no added Ca^2+, and the concentration of EGTA was 50 μM. Whole-cell capacitance measurements (at 33° C.) were made with the cells clamped at −70 mV, and the standard whole-cell configuration was established at t=0. Capacitance recordings were made using an EPC-7 patch-clamp amplifier equipped with the software Pulse (version 8.4 and later) and the X-chart extension (HEKA Elektronik, Lambrecht/Pfalz, Germany) (B9).

The test system is the same in test [2]. Put plainly: CCCP-mediated de-acidification of insulin granules, LSG fluorescence. How it is done: FIG. 7A, Representative confocal images of LSG fluorescence immediately before (zero) and 60 s after perfusion of cells with intracellular buffer supplemented with 100 μM of the protonophore, CCCP, in the absence or presence of 10 μM Ins(3,4,5,6)P4. FIG. 7B, Representative time-courses for changes in LSG-fluorescence ([F/F0] as % of zero time) immediately after establishing a standard whole-cell configuration as in panel A, with intracellular medium (containing 0.4 μM [Ca^2+]free except where “no calcium” is indicated; see Methods) plus 100 μM CCCP, together with either 0 (“control”) or 10 μM Ins(3,4,5,6)P4. FIG. 7C, Mean (±SE) fluorescence changes (n=4-6), during the 60 s that followed establishment of the standard whole-cell configuration, for cells perfused with intracellular medium supplemented with inositol phosphates as indicated at the base of the bar graph ([…]).
The inositol phosphates used in this study were all purchased from CellSignals Inc (Lexington, Ky.). Insulin granule pH were monitored by combining the patch-clamp technique with confocal imaging. Pancreatic β-cells, isolated and cultured on glass coverslips for 2-24 h, were voltage clamped at −70 mV, as previously described (B9). LysoSensor-Green™ DND-189 (1 μM; Molecular Probes, Leiden, The Netherlands) was added during the last 30 min of cell culture and was also included in the extracellular buffer (B9) that continuously perfused the experimental chamber. All LSG experiments were performed at 20° C. to prevent exocytosis that otherwise interfered with the optical measurements (15). LSG fluorescence was excited using the 488 nm-line of a Zeiss 510 confocal microscope. The emitted light was collected with a 63×/1.3 NA oil objective and a >505 nm filter. Laser scanning was performed with low pixel resolution (128×128) and with 6 s intervals to minimize photo-bleaching. After gigaseal formation, it was ascertained that LSG fluorescence was stable for at least 30 s before the experiment commenced. The intracellular electrode solution contained: 125 mM K-glutamate, 10 mM KCl, 1 0 mM NaCl, 1 mM MgCl2, 5 mM HEPES, 3 mM Mg-ATP, 0.1 mM cAMP, 10 mM EGTA and 7 mM CaCl2 (˜0.4 μM free [Ca^2+]I; pH 7.2 with KOH). In some experiments, marked “no calcium”, there was no added Ca^2+, and the concentration of EGTA was 50 μM. Whole-cell capacitance measurements (at 33° C.) were made with the cells clamped at −70 mV, and the standard whole-cell configuration was established at t=0. Capacitance recordings were made using an EPC-7 patch-clamp amplifier equipped with the software Pulse (version 8.4 and later) and the X-chart extension (HEKA Elektronik, Lambrecht/Pfalz, Germany) (B9). […]

Test [3] has as its system pancreatic β-cells. Put plainly: Ca2+-induced exocytosis, whole-cell capacitance recordings. On the procedure: FIG. 8A, Representative increases in cell capacitance (ΔC), reflecting exocytosis (as is described in Barg et al., J. Cell Sci 114: 2145-2154 (2001)), elicited by intracellular perfusion with intracellular solution (0.4 μM [Ca^2+]free), containing either 0 (“control”) or 10 μM Ins(3,4,5,6)P4. FIG. 8B, Average rates of capacitance increase (ΔC/Δt) during the first minute of recording, as described for FIG. 8A, in 5-17 experiments. FIG. 8C, Representative increases in ΔC, measured under the same conditions as in FIG. 8A, except that the [Ca^2+]free was 1.5 μM. FIG. 8D, Average rates of capacitance increase (ΔC/Δt) during the first minute of recording, as described for FIG. 8C, in 6-11 experiments.
The inositol phosphates used in this study were all purchased from CellSignals Inc (Lexington, Ky.). Insulin granule pH were monitored by combining the patch-clamp technique with confocal imaging. Pancreatic β-cells, isolated and cultured on glass coverslips for 2-24 h, were voltage clamped at −70 mV, as previously described (B9). LysoSensor-Green™ DND-189 (1 μM; Molecular Probes, Leiden, The Netherlands) was added during the last 30 min of cell culture and was also included in the extracellular buffer (B9) that continuously perfused the experimental chamber. All LSG experiments were performed at 20° C. to prevent exocytosis that otherwise interfered with the optical measurements (15). LSG fluorescence was excited using the 488 nm-line of a Zeiss 510 confocal microscope. The emitted light was collected with a 63×/1.3 NA oil objective and a >505 nm filter. Laser scanning was performed with low pixel resolution (128×128) and with 6 s intervals to minimize photo-bleaching. After gigaseal formation, it was ascertained that LSG fluorescence was stable for at least 30 s before the experiment commenced. The intracellular electrode solution contained: 125 mM K-glutamate, 10 mM KCl, 1 0 mM NaCl, 1 mM MgCl2, 5 mM HEPES, 3 mM Mg-ATP, 0.1 mM cAMP, 10 mM EGTA and 7 mM CaCl2 (˜0.4 μM free [Ca^2+]I; pH 7.2 with KOH). In some experiments, marked “no calcium”, there was no added Ca^2+, and the concentration of EGTA was 50 μM. Whole-cell capacitance measurements (at 33° C.) were made with the cells clamped at −70 mV, and the standard whole-cell configuration was established at t=0. […]
The degree of insulin granule acidification in pancreatic β-cells has been proposed to affect their fusogenic potential, thereby influencing the rate of insulin secretion by exocytosis (B9;B16). So we next investigated if the interaction of Ins(3,4,5,6)P4 with insulin granule Cl^− channels affected exocytosis, which we recorded by monitoring capacitance of β-cells with the whole-cell patch-clamp technique (B16). […]

As for `O=P(O)(O)OC1[C@@H](OP(=O)(O)O)[C@H](OP(=O)(O)O)C(O)[C@H](OP(=O)(O)O)[C@H]1OP(=O)(O)O` (stereo partly shown) [Ins(1,3,4,5,6)P5, inositol 1,3,4,5,6-pentakisphosphate], in test [1] (100 μM), the “effect on vesicle acidification” value was “neither 100 μM Ins(1,4,5,6)P4 nor 100 μM Ins(1,3,4,5,6)P5 affected”. Besides, the “effect on rate of CCCP-promoted H+ efflux out of the granule” value in test [2] (100 μM, 100 μM CCCP) was “no effect”. In addition, in test [3] (100 μM, 0.4 μM [Ca2+]free), the effect on exocytosis entry is reported as “no effect”.

Turning to `O=P(O)(O)OC1C(O)C(O)C(OP(=O)(O)O)C(OP(=O)(O)O)C1OP(=O)(O)O` (stereo not shown) [Ins(3,4,5,6)P4, inositol 3,4,5,6-tetrakisphosphate], the “effect on granule acidification” value in test [1] (1 μM (resting level)) was “ineffective”. In test [1] (10 μM perfused into the cell, 0.4 μM [Ca2+]free), the “reduction of the rate of acidification of the granular interior” value is listed as “approximately 65%”. Besides, the “effect on CCCP-induced collapse of the pH gradient” value in test [2] (1 μM (resting level)) is listed as “failed to affect”. The “effect on CCCP-induced H+ flux” value in test [2] (10 μM, 100 μM CCCP) is reported as “inhibitory effect”. In test [3] (1 μM, 0.4 μM [Ca2+]free), the effect on exocytosis entry is “ineffective”. In addition, in test [3] (1.5 μM [Ca2+]free), the “effect on rate of exocytosis” value is “did not affect”. This compound had an inhibition at 10 µM in test [3] (Mus musculus, 10 μM, 0.4 μM [Ca2+]free) of about 50%.
